Laboratory results from PMC12349723, “Computationally accelerated identification of P-glycoprotein inhibitors” (PLOS One, 2025).
Values joined by “and” are separate entries in the source; they are usually repeats but may differ in a detail not shown here. Equal entries are not always repeated. Where two headings read alike, the source gives them in different places.

Columns and labels:
A2780-ADR cells = assay: MTT viability assay, reversal of MDR in P-gp overexpressing A2780-ADR cells; type: cell-based, human; settings: A2780-ADR cells
Experimental: (§1) The chemotherapeutic sensitive DU145 human prostate cancer cells and the multidrug resistant sub-line, DU145-TXR, were generous gifts from Dr. Evan Keller (University of Michigan, Ann Arbor, MI). The MDR, P-gp overexpressing DU145-TXR cells were maintained under positive selection pressure by supplementing complete medium with 10 nM paclitaxel (Acros Organics, NJ). In addition to the aforementioned cell lines, the chemotherapeutic sensitive A2780 ovarian cancer cells (93112519, Sigma) and the multidrug resistant A2780-ADR (93112520, Sigma) were maintained in complete RPMI media consisting of RPMI-1640 with L-glutamine, 10% fetal bovine serum (FBS; Corning), 100 U/mL penicillin and 100 μg/mL streptomycin in a humidified incubator at 37 °C and 5% CO2. The MDR, P-gp overexpressing A2780-ADR cell line was maintained under positive selection pressure by supplementing complete medium with 100 nM doxorubicin (Fisher Scientific, NJ). The non-cancerous HFL1 (human lung fibroblast) cell line cell line was a generous gift from Dr. Robert Harrod (Southern Methodist University, Dallas, TX) and was maintained in complete F12K media consisting of F12K with 10% fetal bovine serum, 100 U/mL penicillin, and 100 µg/mL streptomycin (Gibco). Flasks and 96 well plates that were used with the non-cancerous line HFL1 were pre-treated with 0.1 mg/ml Collagen Type 1 (Gibco) and rinsed with PBS (Fisher).
(§2) Culture of the DU145, DU145-TXR, and HFL1 cell lines was performed as described in [8]. Culture of the A2780 and A2780-ADR cell lines was performed as described in [9]. MTT assays were performed as described in [8] with minor modifications. LC-MS/MS accumulation assays were performed as described in {Nanayakkara, 2018 #173} [9] with some modifications. […] The inhibitor concentration was lowered to 15 µM here, as the goal of the study was to identify compounds that were effective in reversing MDR at low concentrations, and to determine if the expanded virtual-assisted methods improved on our first-draft attempt. Compounds 56–98 were pre-screened using Resazurin cell viability assays: cells were incubated with 15 µM compound with or without 500 nM PTX for 48 hours, after which cell survival was assessed similar to [39]. Data represent the mean of two separate experiments, with n = 3 samples per experiment (n = 6 total) (S4 Table). The top performing compounds from this initial screen were re-tested with MTT viability assays against DU145-TXR cells, as described below.
(§3) MTT assays measure the reduction of yellow, water soluble 3-(4,5-dimethylthiazol-2-yl)-2,5-diphenyltetrazolium bromide (MTT) to blue, insoluble formazan crystals by cellular reductase processes in living cells. Cells were trypsinized from monolayers and seeded in complete medium in 96 well plates. Cancerous cell lines (DU145, DU145-TXR, A2780, A2780-ADR) were seeded at 3,000 cells per well in complete RPMI medium. The non-cancerous HFL1 line was seeded at 4,000 cells per well in complete F12K medium, in collagen-treated plates (Collagen Type 1, Gibco). Cells were incubated with experimental compounds for 48 hours at 37 °C and 5% CO2 in a humidified incubator. At 48 hours, MTT was added (20 µL/well of 5 mg/mL MTT in PBS) to each well. After incubation for 4 hours, the media was removed, and the formazan crystals were dissolved in 100 µL DMSO per well. Plates containing the semi-adherent A2780 or A2780-ADR lines were spun at 1400 rpm for 3 minutes prior to aspiration of media, and the addition of DMSO. Plates were shaken for 10 minutes at 500 rpm on an Orbital shaker (LabDoctor from MidSci, St Louis, MO). The absorbance was measured at 570 nm using a Bio-Tek Cytation 5 (Bio-Tek, Winooski, VT). The measured absorbance value was correlated with the number of metabolically active cells in that well, corrected for absorbance of media. […]

P-gp = biological target: T1, P-gp (Homo sapiens, UniProt P08183); assay: Top Hit classification from combined in vitro criteria; settings: reverse MDR, do not increase PTX toxicity in chemo-sensitive cancer cells, non-toxic to noncancerous cells, not P-gp substrates
T1 construct: The MDR, P-gp overexpressing DU145-TXR cells were maintained under positive selection pressure; endogenous in cells; host or cells: DU145-TXR (paclitaxel-resistant sub-line of DU145 human prostate cancer cells)

DU145-TXR cells = assay: MTT viability assay, reversal of MDR (re-sensitization to paclitaxel) in P-gp overexpressing DU145-TXR cells; type: cell-based, human; settings: for % Survival, mean / % Survival / viability at 15 µM: DU145-TXR; for Re-sensitization of DU145-TXR cells to PTX (reversal of MDR): 15 µM compound with or without 500 nM PTX, 48 h, MTT, re-sensitization = 30% or greater decrease in cell viability; for viability at 15 µM: Homo sapiens
Experimental: as §1, §2, §3

[1] = 15 µM compound + 500 nM PTX, mean of 12 samples
[2] = 15 µM compound alone, single samples (trials 1-3, samples 1-4)
[3] = Homo sapiens, A2780 ADR, 15 µM compound alone, mean of 12 samples, read-out: Mean % Survival
[4] = Homo sapiens, A2780 ADR, 15 µM compound alone, single samples (trials 1-3, samples 1-4), read-out: % Survival (individual sample)
[5] = 15 µM compound + 500 nM PTX (Paclitaxel, Taxol), mean of 8 samples
[6] = 15 µM compound + 500 nM PTX (Paclitaxel, Taxol), trial 1, sample 1
[7] = 15 µM compound + 500 nM PTX (Paclitaxel, Taxol), trial 1, sample 2
[8] = 15 µM compound + 500 nM PTX (Paclitaxel, Taxol), trial 1, sample 3
[9] = 15 µM compound + 500 nM PTX (Paclitaxel, Taxol), trial 1, sample 4
[10] = 15 µM compound + 500 nM PTX (Paclitaxel, Taxol), trial 2, sample 1
[11] = 15 µM compound + 500 nM PTX (Paclitaxel, Taxol), trial 2, sample 2
[12] = 15 µM compound + 500 nM PTX (Paclitaxel, Taxol), trial 2, sample 3
[13] = 15 µM compound + 500 nM PTX (Paclitaxel, Taxol), trial 2, sample 4
[14] = 15 µM Compound Alone, mean of 8 samples, read-out: % Survival, mean
[15] = 15 µM Compound Alone, trial 1, sample 1, read-out: % Survival
[16] = 15 µM Compound Alone, trial 1, sample 2, read-out: % Survival
[17] = 15 µM Compound Alone, trial 1, sample 3, read-out: % Survival
[18] = 15 µM Compound Alone, trial 1, sample 4, read-out: % Survival
[19] = 15 µM Compound Alone, trial 2, sample 1, read-out: % Survival
[20] = 15 µM Compound Alone, trial 2, sample 2, read-out: % Survival
[21] = 15 µM Compound Alone, trial 2, sample 3, read-out: % Survival
[22] = 15 µM Compound Alone, trial 2, sample 4, read-out: % Survival
[23] = 1 µM compound + 500 nM PTX, mean of 12 samples

T1 sequence (P08183 whole entry): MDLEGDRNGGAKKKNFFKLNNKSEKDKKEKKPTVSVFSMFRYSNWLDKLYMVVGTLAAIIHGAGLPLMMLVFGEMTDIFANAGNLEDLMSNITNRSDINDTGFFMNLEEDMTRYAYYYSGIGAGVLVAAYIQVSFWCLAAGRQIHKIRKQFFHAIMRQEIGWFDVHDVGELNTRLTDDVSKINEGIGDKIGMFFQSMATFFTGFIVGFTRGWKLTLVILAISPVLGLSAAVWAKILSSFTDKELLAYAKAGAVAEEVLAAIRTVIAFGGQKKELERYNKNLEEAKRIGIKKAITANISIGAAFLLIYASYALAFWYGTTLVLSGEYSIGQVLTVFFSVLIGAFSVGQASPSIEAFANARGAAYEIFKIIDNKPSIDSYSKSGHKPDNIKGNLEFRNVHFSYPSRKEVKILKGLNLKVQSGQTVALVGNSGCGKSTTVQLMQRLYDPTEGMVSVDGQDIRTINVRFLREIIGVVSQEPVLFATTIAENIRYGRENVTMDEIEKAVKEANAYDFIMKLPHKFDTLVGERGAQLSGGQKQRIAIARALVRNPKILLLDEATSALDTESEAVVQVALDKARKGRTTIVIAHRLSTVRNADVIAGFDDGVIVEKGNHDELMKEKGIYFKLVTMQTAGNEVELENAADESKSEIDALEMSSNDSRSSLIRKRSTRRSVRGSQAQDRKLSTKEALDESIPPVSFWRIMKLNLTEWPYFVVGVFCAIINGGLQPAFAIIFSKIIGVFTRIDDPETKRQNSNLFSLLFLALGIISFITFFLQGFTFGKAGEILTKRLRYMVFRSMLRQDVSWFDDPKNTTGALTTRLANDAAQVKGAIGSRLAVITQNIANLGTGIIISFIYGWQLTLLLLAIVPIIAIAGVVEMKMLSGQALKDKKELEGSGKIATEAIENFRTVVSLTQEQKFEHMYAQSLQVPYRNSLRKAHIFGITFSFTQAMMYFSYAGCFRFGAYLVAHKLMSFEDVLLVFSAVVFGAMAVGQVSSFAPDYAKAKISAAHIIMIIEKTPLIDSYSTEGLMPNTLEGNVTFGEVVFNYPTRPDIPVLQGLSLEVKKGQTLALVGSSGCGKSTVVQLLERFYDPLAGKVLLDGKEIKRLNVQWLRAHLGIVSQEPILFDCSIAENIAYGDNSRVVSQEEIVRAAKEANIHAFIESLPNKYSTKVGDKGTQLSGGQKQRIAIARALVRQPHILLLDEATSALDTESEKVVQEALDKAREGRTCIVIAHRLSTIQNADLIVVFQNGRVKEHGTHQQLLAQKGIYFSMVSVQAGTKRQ

Row | SMILES | Mean % Survival (A2780-ADR cells; [1]) | % Survival (individual sample) (A2780-ADR cells; [2]) | % Survival, mean (DU145-TXR cells; [5]) | % Survival (DU145-TXR cells; [6]) | % Survival (DU145-TXR cells; [7]) | % Survival (DU145-TXR cells; [8]) | % Survival (DU145-TXR cells; [9]) | % Survival (DU145-TXR cells; [10]) | % Survival (DU145-TXR cells; [11]) | % Survival (DU145-TXR cells; [12]) | % Survival (DU145-TXR cells; [13]) | viability at 15 µM (DU145-TXR cells; [14]) | viability at 15 µM (DU145-TXR cells; [15]) | viability at 15 µM (DU145-TXR cells; [16]) | viability at 15 µM (DU145-TXR cells; [17]) | viability at 15 µM (DU145-TXR cells; [18]) | viability at 15 µM (DU145-TXR cells; [19]) | viability at 15 µM (DU145-TXR cells; [20]) | viability at 15 µM (DU145-TXR cells; [21]) | viability at 15 µM (DU145-TXR cells; [22]) | other results
1 | NS(=O)(=O)c1cccc(NC(=O)CSc2nnnn2C2CC2)c1 [Compound 89, NS(=O)(=O)c1cccc(NC(=O)CSc2nnnn2C2CC2)c1] | 74.6% | 90% and 86% | 97.9% | 108% | 120% | 99% | 113% | 85% | 83% | 88% | 87% | 105% | 115% | 120% | 122% | 116% | 103% | 92% | 95% | 79% | % Survival (individual sample) (A2780-ADR cells; 15 µM compound + 500 nM PTX, single samples (trials 1-3, samples 1-4)): 54%; viability at 15 µM (A2780-ADR cells; [3]): 89.9%; viability at 15 µM (A2780-ADR cells; [4]): 91%; Top Hit (P-gp): No; Re-sensitization of DU145-TXR cells to PTX (reversal of MDR) (DU145-TXR cells): did not reverse MDR in DU145-TXR cells
2 | Cn1cnnc1SCc1c(C(=O)O)nnn1-c1nonc1N [Compound 59, Cn1cnnc1SCc1c(nnn1-c1nonc1N)C(O)=O] | 83.9% | 98% and 96% | 114.8% | 116% | 115% | 139% | 150% | 95% | 97% | 95% | 111% | 107% | 132% | 105% | 116% | 103% | 103% | 102% | 99% | 99% | viability at 15 µM (A2780-ADR cells; [3]): 93.1%; viability at 15 µM (A2780-ADR cells; [4]): 95%; Top Hit (P-gp): No; Re-sensitization of DU145-TXR cells to PTX (reversal of MDR) (DU145-TXR cells): did not reverse MDR in DU145-TXR cells
3 | COc1ccc2c3c([nH]c2c1)[C@H](CC(C)C)N1C(=O)[C@H](CCC(=O)OC(C)(C)C)NC(=O)[C@@H]1C3 [Ko143, reference compound] |  |  | 72.4% | 75% | 82% | 91% | 77% | 65% | 67% | 58% | 64% |  |  |  |  |  |  |  |  |  | Mean % Survival (A2780-ADR cells; [23]): 77.3%; % Survival (individual sample) (A2780-ADR cells; 1 µM compound + 500 nM PTX, single samples (trials 1-3, samples 1-4)): 70% and 74% and 82% and 83% and 73% and 76% and 85% and 71% and 75% and 84%; Mean % Survival (A2780-ADR cells; 1 µM compound alone, mean of 12 samples): 102.8%; % Survival (individual sample) (A2780-ADR cells; 1 µM compound alone, single samples (trials 1-3, samples 1-4)): 103% and 101% and 106% and 119% and 127% and 112% and 96% and 91% and 87% and 92% and 99%; % Survival, mean (DU145-TXR cells; 15 µM Compound Alone, mean of 8 samples): 89.2%; % Survival (DU145-TXR cells; 15 µM Compound Alone, trial 1, sample 1): 101%; % Survival (DU145-TXR cells; 15 µM Compound Alone, trial 1, sample 2): 113%; % Survival (DU145-TXR cells; 15 µM Compound Alone, trial 1, sample 3): 88%; % Survival (DU145-TXR cells; 15 µM Compound Alone, trial 1, sample 4): 91%; % Survival (DU145-TXR cells; 15 µM Compound Alone, trial 2, sample 1): 92%; % Survival (DU145-TXR cells; 15 µM Compound Alone, trial 2, sample 2): 74%; % Survival (DU145-TXR cells; 15 µM Compound Alone, trial 2, sample 3): 75%; % Survival (DU145-TXR cells; 15 µM Compound Alone, trial 2, sample 4): 80%
4 | COc1cc2c(cc1OC)CN(CCc1ccc(NC(=O)c3cc(OC)c(OC)cc3NC(=O)c3cnc4ccccc4c3)cc1)CC2 [Tariquidar, reference compound] |  |  | 13.1% | 11% | 10% | 21% | 13% | 20% | 13% | 9% | 7.57% | 101% | 139% | 94% | 96% | 95% | 80% | 106% | 79% | 123% | Mean % Survival (A2780-ADR cells; [23]): 55.3%; % Survival (individual sample) (A2780-ADR cells; 1 µM compound + 500 nM PTX, single samples (trials 1-3, samples 1-4), listed as TQR): 58% and 59%; viability at 1 µM (A2780-ADR cells; Homo sapiens, A2780 ADR, 1 µM compound alone, mean of 12 samples, read-out: Mean % Survival): 91%
